{
  "source": "patent US4210638A",
  "about": "“Antiviral composition and method of treating virus diseases” (PCR, Inc., priority 1978, dated 1980)",
  "key": {"[1]": {"target": "T1, HSV-2 induced pyrimidine deoxyribonucleoside kinase (Human herpesvirus 2 strain HG52, UniProt P89446)", "T1 construct": "preparation not described in the excerpts", "T1 sequence (P89446 whole entry)": "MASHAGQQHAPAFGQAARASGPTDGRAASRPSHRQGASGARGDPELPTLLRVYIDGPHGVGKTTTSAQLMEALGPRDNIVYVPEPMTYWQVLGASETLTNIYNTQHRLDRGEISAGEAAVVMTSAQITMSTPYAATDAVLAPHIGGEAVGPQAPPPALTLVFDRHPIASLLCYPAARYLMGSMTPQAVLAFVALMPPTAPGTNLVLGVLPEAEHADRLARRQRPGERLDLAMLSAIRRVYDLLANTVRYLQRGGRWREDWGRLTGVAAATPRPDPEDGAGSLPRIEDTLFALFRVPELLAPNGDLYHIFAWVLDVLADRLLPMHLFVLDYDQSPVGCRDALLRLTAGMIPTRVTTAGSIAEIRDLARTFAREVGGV", "assay": "Phosphorylation by HSV-2 induced pyrimidine deoxyribonucleoside kinase", "assay_type": "biochemical", "excerpt": "The following spots were eluted into H2 O and scanned from 225 to 350 nm: (a) standard, (b) F3 methyl dC standard, […] spot after cytidine deaminase treatment of F3 dT and […] spot after cytidine deaminase treatment of F3 methyl dC. The u.v. absorption profile of F3 dT derived from deamination of F3 methyl dC is identical to that obtained from authentic F3 dT.\nSolutions a, c, and d, above, were adjusted to the same O. D. and used as substrates for HSV-2 induced pyrimidine deoxyribonucleoside kinase. Results:\nStock solutions of F3 dT and F3 methyl dC were made up and adjusted to the same concentration as the F3 dT and F3 methyl dC purified chromatographically (solutions a and b, respectively). Usually, F3 methyl dC is phosphorylated 1/6 of the extent that F3 dT is phosphorylated. […] This experiment was performed twice. Results:\nValues for chromatographically purified samples are probably lower due to impurities arising from non-acid washed paper."}, "[2]": {"test_system": "cytidine deaminase", "assay": "Incubation with crude cytidine deaminase extract of HEP-2 cells (deamination)", "assay_type": "in vitro ADME, human", "conditions": "crude HEP-2 cytidine deaminase extract; Whatman 3MM chromatography"}, "[3]": {"assay": "Incubation with HNO2 (pH 4.5) at room temperature", "assay_type": "physicochemical", "conditions": "9 hours", "procedure": "(§1) The results of incubation with HNO2 (pH 4.5) at room temperature were identical to those obtained above."}, "[4]": {"assay": "Incubation with acetate buffer (pH 4.5)", "assay_type": "physicochemical", "conditions": "9 hours", "procedure": "as §1"}, "[5]": {"test_system": "HSV-2", "assay": "Antiviral activity vs HSV-2 in HEp-2 cells (plaque assay in BHK cells)", "assay_type": "cell-based", "conditions": "for Average Log10 S.F.: +H4 U", "procedure": "(§2) The culture medium containing the nucleoside analogs at varying concentrations are added to the infected cultures. In the case of HEp-2 cells which contain high deaminase levels, H4 U is incorporated into the medium. At 48 hours, virus is harvested from the cultures by freezing and thawing. The virus produced from each culture is titred by plaque assay in BHK cells. By using this protocol the antiviral effectiveness of F3 methyl dC can be compared directly with the effectiveness of other antiviral agents. Furthermore, by including H4 U in the medium, the effectiveness of F3 methyl dC can be determined without deamination at the nucleoside level."}, "[6]": {"test_system": "HSV-1", "assay": "Antiviral activity vs HSV-1 in HEp-2 cells (plaque assay in BHK cells)", "assay_type": "cell-based", "conditions": "for Log10 S.F. vs HSV-1: + H4 U (from FIG. 3)", "procedure": "as §2"}, "[7]": {"test_system": "Herpes-varicella-zoster virus (VZV)", "assay": "Antiviral activity against cells infected with Herpes-varicella-zoster virus", "assay_type": "cell-based"}, "[8]": {"assay": "Survival / toxicity in the mouse", "conditions": "in vivo", "procedure": "That is, 3 mg/kg body weight to 75 mg/kg body weight; for example, about 10 mg/kg body weight per day for 7 days or 700 mg for a 70 kg man per day for 7 days. […] 100 percent survival was obtained with a dose of 50 mg."}, "[9]": {"assay": "Solubility", "assay_type": "physicochemical"}, "[10]": {"assay": "Metabolic stability", "conditions": "versus prior antiviral agents"}, "[11]": {"assay": "Cytotoxicity vs HEp-2 cells (colony formation, % survival)", "conditions": "human, hep-2 cells; for viability at 48 h, 60 µM: % S of HEp-2 cells, 0.06 mM; for viability at 48 h, 3 µM: 0.003 mM; for viability at 48 h, 30 µM: 0.03 mM; for viability at 48 h, 300 µM: 0.3 mM"}, "[12]": {"test_system": "HEp-2 cells", "assay": "Cytotoxicity vs HEp-2 cells (colony formation, % survival)", "conditions": "for % Survival: 2880 min"}, "[13]": {"conditions": "% Survival, +H4 U 500 μg/ml (experiment 3 and 4)"}},
  "note": "Several values for one entry are separate records, joined by “and”; a condition that tells them apart may be missing. Equal values may be shown once. Read-outs that look alike come from different tables or passages of the source.",
  "data": [
    {"smiles": "Nc1nc(=O)n([C@H]2C[C@H](O)[C@@H](CO)O2)cc1C(F)(F)F", "note": "[F3 methyl dC, 5-trifluoromethyl-2'-deoxycytidine]", "values": [
      {"measurement": "ratio of phosphorylation relative to F3 dT", "setting": "[1]; chromatographically purified", "value": "Approx 1/3"},
      {"measurement": "nmoles phosphorylated/4 hrs", "setting": "[1]; chromatographically purified, value in parentheses (experiment performed twice)", "value": 0.06, "unit": "nmoles/4 hrs"},
      {"measurement": "nmoles phosphorylated/4 hrs", "setting": "[1]; chromatographically purified, value outside parentheses", "value": 0.04, "unit": "nmoles/4 hrs"},
      {"measurement": "ratio of phosphorylation relative to F3 dT", "setting": "[1]; standard solutions", "value": "Approx 1/4"},
      {"measurement": "nmoles phosphorylated/4 hrs", "setting": "[1]; standard solutions, value in parentheses (experiment performed twice)", "value": 0.08, "unit": "nmoles/4 hrs"},
      {"measurement": "nmoles phosphorylated/4 hrs", "setting": "[1]; standard solutions, value outside parentheses", "value": 0.48, "unit": "nmoles/4 hrs"},
      {"measurement": "extent of phosphorylation relative to F3 dT", "setting": "[1]; usual value", "value": "1/6"},
      {"measurement": "chromatographic change on incubation with cytidine deaminase", "setting": "[2]", "value": "formation of an Rf =0.43 spot and disappearance of the 0.80 spot"},
      {"measurement": "conversion to a product that has the same Rf as F3 dT", "setting": "[3]", "value": "approximately 98%"},
      {"measurement": "modification in acetate buffer", "setting": "[4]", "value": "did not lead to modification"},
      {"measurement": "Log10 Surviving Fraction of Plaque Forming Units", "setting": "[5]; 0.003 mM, +H4 U 500 μg/ml (experiment 3 and 4)", "value": -1.9},
      {"measurement": "Average Log10 S.F.", "setting": "[5]; 0.003 mM, average", "value": -1.7},
      {"measurement": "Average Log10 S.F.", "setting": "[5]; 0.03 mM, average", "value": -3.6},
      {"measurement": "Log10 Surviving Fraction of Plaque Forming Units", "setting": "[5]; 0.3 mM, +H4 U 100 μg/ml (experiment 1 and 2)", "value": -3.7},
      {"measurement": "Average Log10 S.F.", "setting": "[5]; 0.3 mM, average", "value": -3.7},
      {"measurement": "log reduction at 3 µM", "setting": "[5]; Human alphaherpesvirus 2, 48 h, 0.003 mM, -H4 U, average, read-out: Average Log10 S.F.", "value": 0.94},
      {"measurement": "log reduction at 30 µM", "setting": "[5]; Human alphaherpesvirus 2, 48 h, 0.03 mM, +2'dH4 U 500 μg/ml, read-out: Log10 S.F. HSV-2", "value": 3.5},
      {"measurement": "log reduction at 30 µM", "setting": "[5]; Human alphaherpesvirus 2, 48 h, 0.03 mM, +H4 U 500 μg/ml, read-out: Log10 S.F. HSV-2", "value": 3.4},
      {"measurement": "log reduction at 30 µM", "setting": "[5]; Human alphaherpesvirus 2, 48 h, 0.03 mM, -H4 U, average, read-out: Average Log10 S.F.", "value": 3.2},
      {"measurement": "log reduction at 30 µM", "setting": "[5]; Human alphaherpesvirus 2, 48 h, 0.03 mM, no addition, read-out: Log10 S.F. HSV-2", "value": 3.3},
      {"measurement": "log reduction at 300 µM", "setting": "[5]; Human alphaherpesvirus 2, 48 h, 0.3 mM, -H4 U, average, read-out: Average Log10 S.F.", "value": 3.7},
      {"measurement": "log reduction at 300 µM", "setting": "[5]; Human alphaherpesvirus 2, 48 h, 0.3 mM, -H4 U, read-out: Log10 Surviving Fraction of Plaque Forming Units", "value": 3.7},
      {"measurement": "log reduction at 30 µM", "setting": "[5]; Human alphaherpesvirus 2, 48 h, read-out: Log10 Surviving Fraction of Plaque Forming Units, 0.03 mM, -H4 U", "value": 3.1},
      {"measurement": "Log10 S.F. vs HSV-1", "setting": "[6]; 0.003 mM", "value": -4.2},
      {"measurement": "Log10 S.F. vs HSV-1", "setting": "[6]; 0.03 mM", "value": "< -4.6"},
      {"measurement": "antiviral activity vs HSV-1 compared with F3 dT±H4 U", "setting": "[6]; ±H4 U (FIG. 3)", "value": "more potent antiviral activity than F3 dT±H4 U"},
      {"measurement": "antiviral activity against cells infected with VZV", "setting": "[7]", "value": "selective antiviral activity"},
      {"measurement": "survival at 168 h", "setting": "[8]; 50 mg/kg/day for 7 days, coadministered with H4 U", "value": 100, "unit": "%"},
      {"measurement": "survival at 168 h", "setting": "[8]; 250 mg/kg once per day for 7 days, H4 U coadministered one hour prior", "value": 60, "unit": "%"},
      {"measurement": "LD50 at 168 h", "setting": "[8]; coadministered with H4 U, for 7 days", "value": 325, "unit": "mg/kg"},
      {"measurement": "solubility in DMSO", "setting": "[9]; DMSO", "value": "a solvent for the F3 methyl dC"},
      {"measurement": "solubility in acetone", "setting": "[9]; acetone", "value": "insoluble in acetone"},
      {"measurement": "solubility in water", "setting": "[9]; water", "value": "partially soluble in water"},
      {"measurement": "metabolic stability", "setting": "[10]", "value": "substantially increased metabolic stability"},
      {"measurement": "viability at 48 h, 60 µM", "setting": "[11]; +2'dH4 U 500 μg/ml", "value": "50 ± 5", "unit": "%"},
      {"measurement": "viability at 48 h, 60 µM", "setting": "[11]; +H4 U 500 μg/ml", "value": "9 ± 3", "unit": "%"},
      {"measurement": "viability at 48 h, 60 µM", "setting": "[11]; no addition", "value": "< 0.006", "unit": "%"},
      {"measurement": "viability at 48 h, 3 µM", "setting": "[11]; % Survival, +H4 U 100 μg/ml (experiment 1 and 2)", "value": 100, "unit": "%"},
      {"measurement": "viability at 48 h, 3 µM", "setting": "[11]; [13]", "value": 53, "unit": "%"},
      {"measurement": "viability at 48 h, 30 µM", "setting": "[11]; [13]", "value": 25, "unit": "%"},
      {"measurement": "viability at 48 h, 300 µM", "setting": "[11]; [13]", "value": 0.001, "unit": "%"},
      {"measurement": "viability at 48 h, 3 µM", "setting": "[11]; Average % S, +H4 U, average", "value": 77, "unit": "%"},
      {"measurement": "viability at 48 h, 3 µM", "setting": "[11]; Average % S, -H4 U, average", "value": 0.95, "unit": "%"},
      {"measurement": "viability at 48 h, 30 µM", "setting": "[11]; Average % S, +H4 U, average", "value": 32, "unit": "%"},
      {"measurement": "viability at 48 h, 30 µM", "setting": "[11]; Average % S, -H4 U, average", "value": "< 0.01", "unit": "%"},
      {"measurement": "viability at 48 h, 300 µM", "setting": "[11]; Average % S, +H4 U, average", "value": "< 0.01", "unit": "%"},
      {"measurement": "viability at 48 h, 300 µM", "setting": "[11]; Average % S, -H4 U, average", "value": "< 0.01", "unit": "%"},
      {"measurement": "% Survival", "setting": "[12]; 0.003 mM, +H4 U 100 μg/ml (experiment 1 and 2), 3 µM", "value": 93, "unit": "%"},
      {"measurement": "% Survival", "setting": "[12]; 0.003 mM, +H4 U 500 μg/ml (experiment 3 and 4), 3 µM", "value": 61, "unit": "%"},
      {"measurement": "% Survival", "setting": "[12]; 0.003 mM, -H4 U, 3 µM", "value": "3% and 0.1% and 0.6%"},
      {"measurement": "% Survival", "setting": "[12]; 0.03 mM, +H4 U 500 μg/ml (experiment 3 and 4), 30 µM", "value": 31, "unit": "%"},
      {"measurement": "cytotoxicity at concentrations with antiviral activity", "setting": "[12]; +H4 U", "value": "only marginally cytotoxic"},
      {"measurement": "increased survival with H4 dU than with H4 U", "setting": "[12]; F3 methyl dC with H4 dU versus with H4 U", "value": "~5", "unit": "fold"},
      {"measurement": "therapeutic index", "setting": "[12]; with H4 U, HSV-2 vs HEp-2 cytotoxicity", "value": "high therapeutic index"},
      {"measurement": "cytotoxicity at concentrations with antiviral activity", "setting": "[12]; without H4 U", "value": "extremely cytotoxic"},
      {"measurement": "cytotoxicity at effective antiviral concentrations", "setting": "[12]; ±H4 U (summary of Table IV)", "value": "marginal to only moderate cytotoxicity"}
    ]}
  ]
}
